Molecular target: T1, sGC α1/β1 heterodimer (Homo sapiens, UniProt Q02108+Q02153)
T1 construct: expressed in transfected cells; host or cells: CHO-K1 (clone #7, CHO-K1/sGC)
T1 sequence (Q02108 1-690): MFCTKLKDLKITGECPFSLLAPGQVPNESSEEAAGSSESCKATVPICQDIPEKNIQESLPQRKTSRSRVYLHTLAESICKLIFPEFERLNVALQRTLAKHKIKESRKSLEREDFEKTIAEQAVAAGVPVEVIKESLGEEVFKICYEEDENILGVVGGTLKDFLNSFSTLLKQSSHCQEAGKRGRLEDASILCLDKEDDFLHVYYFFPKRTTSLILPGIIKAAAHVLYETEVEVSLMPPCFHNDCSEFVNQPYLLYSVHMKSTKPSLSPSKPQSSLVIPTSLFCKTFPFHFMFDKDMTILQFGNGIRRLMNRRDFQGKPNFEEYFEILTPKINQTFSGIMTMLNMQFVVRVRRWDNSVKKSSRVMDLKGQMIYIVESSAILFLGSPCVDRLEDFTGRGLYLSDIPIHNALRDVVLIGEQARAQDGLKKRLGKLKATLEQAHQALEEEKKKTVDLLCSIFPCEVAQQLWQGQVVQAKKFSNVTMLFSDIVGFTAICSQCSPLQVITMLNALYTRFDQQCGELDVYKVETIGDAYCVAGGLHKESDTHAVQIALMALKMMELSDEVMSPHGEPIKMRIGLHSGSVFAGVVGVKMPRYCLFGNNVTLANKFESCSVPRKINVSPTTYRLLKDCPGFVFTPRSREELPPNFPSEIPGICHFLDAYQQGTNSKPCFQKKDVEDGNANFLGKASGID
T1 sequence (Q02153 1-619): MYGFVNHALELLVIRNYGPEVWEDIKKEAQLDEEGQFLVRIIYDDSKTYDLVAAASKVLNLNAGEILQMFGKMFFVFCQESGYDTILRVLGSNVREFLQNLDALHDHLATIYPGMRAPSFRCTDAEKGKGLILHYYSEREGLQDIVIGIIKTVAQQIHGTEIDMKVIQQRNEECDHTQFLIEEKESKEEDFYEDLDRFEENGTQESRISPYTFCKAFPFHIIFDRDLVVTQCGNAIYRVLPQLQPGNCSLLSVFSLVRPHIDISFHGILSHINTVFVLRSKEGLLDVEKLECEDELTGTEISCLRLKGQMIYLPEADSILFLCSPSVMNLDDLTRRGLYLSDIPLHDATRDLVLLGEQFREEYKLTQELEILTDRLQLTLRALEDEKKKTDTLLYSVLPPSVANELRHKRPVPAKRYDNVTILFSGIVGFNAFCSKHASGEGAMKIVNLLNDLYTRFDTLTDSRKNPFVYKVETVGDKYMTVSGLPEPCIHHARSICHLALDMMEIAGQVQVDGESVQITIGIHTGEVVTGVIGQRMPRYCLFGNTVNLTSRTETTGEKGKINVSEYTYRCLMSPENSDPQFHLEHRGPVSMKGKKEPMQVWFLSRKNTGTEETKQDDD
Experiment: Cell-Based sGC Functional Assay (CASA Assay), cGMP by HTRF in CHO-K1/sGC cells
Settings: for Emax: CHO-K1, percent activation relative to maximum cGMP production of Compound A (= 100%), read-out: % Act.; for EC50: cGMP production, 1 hr at 37° C., 4P fit, presence or absence of 1 μM DETA-NO not given, read-out: IP (nM) (inflection point); for % Act.: percent activation relative to maximum cGMP production of Compound A (= 100%)
Source text: Biological Assay 1: Cell-Based sGC Functional Assay (CASA Assay)
sGC is a heme-containing enzyme that converts GTP to secondary messenger cGMP. Increases in cGMP levels affect several physiological processes including vasorelaxation through multiple downstream pathways. […] Heme-dependent activators (HDAs) preferentially activate sGC containing a ferrous heme group. To determine the effect of sGC activators on enzyme activity, the CASA assay was developed to monitor the generation of cGMP in a cell line that stably expresses the heterodimeric sGC protein.
A CHO-K1 cell line stably expressing the sGC α1/β1 heterodimer was generated using a standard transfection protocol. CHO-K1 cells were transfected with plasmids pIREShyghsGCα1 and pIRESneo-hsGCβ1 simultaneously using FUGENE reagent. Clones that stably express both subunits were selected with hygromycin and neomycin for ˜2 weeks. Clone #7 was chosen for the assay and was designated CHO-K1/sGC. CHO-K1/sGC cells were maintained in F-K12 medium containing 10% heat-inactivated Fetal Bovine Serum (FBS), 100 μg/mL penicillin/streptomycin, 0.5 mg/mL hygromycin and 0.25 mg/mL G418. The cells were then cryopreserved in LN2. On the day of the assay, cells were thawed and resuspended in EBSS Assay Buffer (Sigma, E3024) supplemented with 5 mM MgCl2, 10 mM HEPES (4-(2-hydroxyethyl)piperazine-1-ethanesulfonic acid) and 0.05% BSA (bovine serum albumin) (EAB) and cell density was then adjusted to 4×10^5/mL with EAB. IBMX (3-isobutyl-1-methylxanthin, 0.5 mM) was added to inhibit degradation of cGMP. Compounds were diluted from DMSO stock solutions and added to the assay at a final DMSO concentration of 2.5%. Cells were incubated with compounds in the presence and absence of 1 μM of Diethylenetriamine/nitric oxide adduct (DETA-NO; Sigma, 17018) for 1 hr at 37° C. At the end of the incubation period, the reaction was terminated and the cells were lysed with the detection reagents from Cisbio Kits. The level of intracellular cGMP was determined using an HTRF-based assay kit (CisBio, 62GM2PEC), which detects the displacement of a fluorescence labeled cGMP from its specific antibody. The cGMP produced by test compounds was directly compared to the maximum cGMP production (this value was set to equal 100% activation.) of the published sGC-HDA Compound A:
[drawing 175] (Example 1 in WO 2010/065275, published Jun. 10, 2010). The test compounds' activities were then expressed as a percentage of Compound A, the standard in every experiment. This percent activation was calculated either in the presence or absence of DETA-NO which was then plotted. IP and maximum fold induction was derived using ADA analysis software for 4P fit.
The compounds in the Examples of the instant invention had inflection points (IP) less than or equal to 10 μM and most less than or equal to about 1 μM.

Row | Structure (SMILES) | Emax | EC50 | % Act.
1 | CCCCc1nc(-c2ncc3c(n2)NC(=O)C3(c2ccc(Cl)c(F)c2)C2CC2)cn2ccnc12 (centres unmarked) [Example 47A, 2-(8-butylimidazo[1,2-a]pyrazin-6-yl)-5-(4-chloro-3-fluorophenyl)-5-cyclopropyl-5H-pyrrolo[2,3-d]pyrimidin-6(7H)-one] | 123% | 11 nM | 
2 | CCCCc1nc(-c2nc(O)c3c(n2)NC(=O)C3(c2ccc(Cl)cc2F)C2CC2)cn2ccnc12 (centres unmarked) [Example 33A, 2-(8-butylimidazo[1,2-a]pyrazin-6-yl)-5-(4-chloro-2-fluorophenyl)-5-cyclopropyl-4-hydroxy-5H-pyrrolo[2,3-d]pyrimidin-6(7H)-one] | 111% | 107 nM | 
3 | O=C1Nc2nc(-c3cn4ccnc4c(Cc4ccc(F)cc4)n3)ncc2C1(C(=O)NC1CC1)C1CC1 (single isomer, unassigned) [Example 68B, N,5-dicyclopropyl-2-(8-(4-fluorobenzyl)imidazo[1,2-a]pyrazin-6-yl)-6-oxo-6,7-dihydro-5H-pyrrolo[2,3-d]pyrimidine-5-carboxamide] |  | 83 nM | 120%
4 | O=C1Nc2nc(-c3cn4ccnc4c(CCC(F)(F)C(F)(F)F)n3)ncc2C1(c1ccc(Cl)cn1)C1CC1 (centres unmarked) [Example 7A, 5-(5-chloropyridin-2-yl)-5-cyclopropyl-2-(8-(3,3,4,4,4-pentafluorobutyl)imidazo[1,2-a]pyrazin-6-yl)-5H-pyrrolo[2,3-d]pyrimidin-6(7H)-one] | 113% | 343 nM | 
5 | CCCCc1nc(-c2nc3c(c(C4CC4)n2)C(C)(c2ccc(F)cn2)C(=O)N3)cn2ccnc12 (centres unmarked) [Example 72B, 2-(8-butylimidazo[1,2-a]pyrazin-6-yl)-4-cyclopropyl-5-(5-fluoropyridin-2-yl)-5-methyl-5H-pyrrolo[2,3-d]pyrimidin-6(7H)-one] | 179% | 81 nM | 
6 | O=C1Nc2nc(-c3cn4ccnc4c(CCCC(F)(F)F)n3)ncc2C1(c1ccc(Cl)c(F)c1)C1CC1 (centres unmarked) [Example 48A, 5-(4-chloro-3-fluorophenyl)-5-cyclopropyl-2-(8-(4,4,4-trifluorobutyl)imidazo[1,2-a]pyrazin-6-yl)-5H-pyrrolo[2,3-d]pyrimidin-6(7H)-one] | 130% | 24 nM | 
7 | CC1(C(=O)NC2CC2)C(=O)Nc2nc(-c3cn4ccnc4c(Cc4ccccc4F)n3)ncc21 (single isomer, unassigned) [Example 69A, N-cyclopropyl-2-(8-(2-fluorobenzyl)imidazo[1,2-a]pyrazin-6-yl)-5-methyl-6-oxo-6,7-dihydro-5H-pyrrolo[2,3-d]pyrimidine-5-carboxamide] |  | 38 nM | 179%
8 | CC1(c2ccc(Cl)cc2)C(=O)Nc2nc(-c3cn4ccnc4c(OCCC4CC4)n3)nc(O)c21 (centres unmarked) [Example 94A, 5-(4-Chlorophenyl)-2-(8-(2-cyclopropylethoxy)imidazo[1,2-a]pyrazin-6-yl)-4-hydroxy-5-methyl-5H-pyrrolo[2,3-d]pyrimidin-6(7H)-one] | 90% | 136 nM | 
9 | O=C1Nc2nc(-c3cn4ccnc4c(Cc4ccccc4F)n3)ncc2C1(C(=O)NC1CC1)C1CC1 (single isomer, unassigned) [Example 70B, N,5-dicyclopropyl-2-(8-(2-fluorobenzyl)imidazo[1,2-a]pyrazin-6-yl)-6-oxo-6,7-dihydro-5H-pyrrolo[2,3-d]pyrimidine-5-carboxamide] |  | 61 nM | 130%
10 | CC1(c2ccc(Cl)cc2)C(=O)Nc2nc(-c3cn4ccnc4c(CCC(F)(F)F)n3)ncc21 (centres unmarked) [Example 61A, 5-(4-chlorophenyl)-5-methyl-2-(8-(3,3,3-trifluoropropyl)imidazo[1,2-a]pyrazin-6-yl)-5H-pyrrolo[2,3-d]pyrimidin-6(7H)-one] | 104% | 401 nM | 
11 | CCCc1nc(-c2nc(O)c3c(n2)NC(=O)C3(C)c2ccc(Cl)cc2)cn2ccnc12 (centres unmarked) [Example 14A, 5-(4-chlorophenyl)-4-hydroxy-5-methyl-2-(8-propylimidazo[1,2-a]pyrazin-6-yl)-5H-pyrrolo[2,3-d]pyrimidin-6(7H)-one] | 92% | 657 nM | 
12 | O=C1Nc2nc(-c3cn4ccnc4c(CCCC(F)(F)F)n3)ncc2C1(c1ccc(F)cc1)C1CC1 (centres unmarked) [Example 60B, 5-cyclopropyl-5-(4-fluorophenyl)-2-(8-(4,4,4-trifluorobutyl)imidazo[1,2-a]pyrazin-6-yl)-5H-pyrrolo[2,3-d]pyrimidin-6(7H)-one] | 126% | 30 nM | 
13 | CC1(c2ccc(Cl)cn2)C(=O)Nc2nc(-c3cn4ccnc4c(CC4CCC4)n3)ncc21 (centres unmarked) [Example 58A, 5-(5-chloropyridin-2-yl)-2-(8-(cyclobutylmethyl)imidazo[1,2-a]pyrazin-6-yl)-5-methyl-5H-pyrrolo[2,3-d]pyrimidin-6(7H)-one] | 150% | 81 nM | 
14 | CC1(c2ccc(F)cn2)C(=O)Nc2nc(-c3cn4ccnc4c(CCCC(F)(F)F)n3)nc(C3CC3)c21 (centres unmarked) [Example 73B, 4-cyclopropyl-5-(5-fluoropyridin-2-yl)-5-methyl-2-(8-(4,4,4-trifluorobutyl)imidazo[1,2-a]pyrazin-6-yl)-5H-pyrrolo[2,3-d]pyrimidin-6(7H)-one] | 125% | 18 nM | 
15 | CC1(c2ccc(Cl)cn2)C(=O)Nc2nc(-c3cn4c(N)cnc4c(CCC(F)(F)C(F)(F)F)n3)ncc21 (centres unmarked) [Example 87A, 2-(3-Amino-8-(3,3,4,4,4-pentafluorobutyl)imidazo[1,2-a]pyrazin-6-yl)-5-(5-chloropyridin-2-yl)-5-methyl-5H-pyrrolo[2,3-d]pyrimidin-6(7H)-one] | 130% | 316 nM | 
16 | COCCOc1nc(-c2cn3ccnc3c(CCC(F)(F)C(F)(F)F)n2)nc2c1C(C)(c1ccc(F)cc1)C(=O)N2 (centres unmarked) [Example 88A, 5-(4-Fluorophenyl)-4-(2-methoxyethoxy)-5-methyl-2-(8-(3,3,4,4,4-pentafluorobutyl)imidazo[1,2-a]pyrazin-6-yl)-5H-pyrrolo[2,3-d]pyrimidin-6(7H)-one] | 100% | 38 nM | 
